Experimental data as given in PMC10950880, “The RsfSR two-component system regulates SigF function by monitoring the state of the respiratory electron transport chain in Mycobacterium smegmatis” (The Journal of Biological Chemistry, 2024).

Columns and labels:
RsfR (MSMEG_6131) = biological target: T1, RsfR (MSMEG_6131) (Mycolicibacterium smegmatis, UniProt A0R5B4); experiment: phosphorylation of RsfR by acetyl phosphate (Phos-tag SDS-PAGE); RsfR then tested on P-RsfB; type: biochemical; details: 40 mM acetyl phosphate, 300 mM Tris-HCl pH 8.0, 50 mM KCl, 10 mM MgCl2, no ATP, 30 C; phosphodonor, covalent
T1 construct: C-terminal His6 kept; from E. coli BL21 (DE3), pT7-7rsfR
T1 sequence (A0R5B4 1-402): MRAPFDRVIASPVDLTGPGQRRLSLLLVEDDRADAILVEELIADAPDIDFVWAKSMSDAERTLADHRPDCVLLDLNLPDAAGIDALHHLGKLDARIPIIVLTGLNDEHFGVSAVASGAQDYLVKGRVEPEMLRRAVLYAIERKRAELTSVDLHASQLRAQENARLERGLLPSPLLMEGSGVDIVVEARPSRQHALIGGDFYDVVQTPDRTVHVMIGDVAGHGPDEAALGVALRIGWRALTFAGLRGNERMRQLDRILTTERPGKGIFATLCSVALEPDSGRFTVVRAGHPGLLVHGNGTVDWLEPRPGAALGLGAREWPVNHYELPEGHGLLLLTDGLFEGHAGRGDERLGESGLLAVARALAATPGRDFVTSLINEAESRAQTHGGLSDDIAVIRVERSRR

[1] = biological target: T2, RsfSTr (truncated RsfS, MSMEG_6130) (Mycolicibacterium smegmatis, UniProt A0R5B3); experiment: autophosphorylation and phosphotransfer to RsfR, Phos-tag SDS-PAGE; type: biochemical; details: 1 mM ATP, 300 mM Tris-HCl pH 8, 50 mM KCl, 10 mM MgCl2, 30 C; covalent
T2 construct: kinase domain only (amino acids 190-525), lacks CHASE3 and N-terminal region; C-terminal His6 kept; from E. coli BL21; partially purified
T2 sequence (A0R5B3 entry or part of it): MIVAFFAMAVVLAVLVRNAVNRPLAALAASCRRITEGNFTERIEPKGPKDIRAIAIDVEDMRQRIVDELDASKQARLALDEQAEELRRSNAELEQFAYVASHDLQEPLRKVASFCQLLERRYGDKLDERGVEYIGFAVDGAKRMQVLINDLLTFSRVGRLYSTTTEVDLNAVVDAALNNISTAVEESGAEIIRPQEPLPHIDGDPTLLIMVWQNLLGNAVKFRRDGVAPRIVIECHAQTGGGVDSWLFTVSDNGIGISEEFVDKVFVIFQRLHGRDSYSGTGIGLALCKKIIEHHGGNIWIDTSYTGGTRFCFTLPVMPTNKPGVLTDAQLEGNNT

| SMILES | RsfR phosphorylation by acetyl phosphate (RsfR (MSMEG_6131)) | autophosphorylation and phosphotransfer to RsfR, Phos-tag SDS-PAGE [1] |
| --- | --- | --- |
| CC(=O)OP(=O)(O)O [acetyl phosphate] | Acetyl phosphate phosphorylated purified RsfR less efficiently than RsfSTr | – |
| Nc1ncnc2c1ncn2[C@@H]1O[C@H](COP(=O)(O)OP(=O)(O)OP(=O)(O)O)[C@@H](O)[C@H]1O [ATP] | – | RsfSTr was autophosphorylated in the reaction mixture |
